{"source": "patent US5744424A", "key": {"[1]": {"details": "water; 18° C.; cited from earlier work"}, "physchem [2]": {"experiment": "physchem", "description": "where Percent \"S\" is the per unit volume of N^6 BA expressed as a percentage and \"N\" is the Normality of the solution after dissolution of N^6 BA in the solution."}, "turf grasses": {"system": "turf grasses", "experiment": "Force required to extract grass sod plugs (root density, FIG. 4)"}, "plant species": {"system": "plant species", "details": "cited from earlier work"}, "[3]": {"details": "cited from earlier work"}, "physchem [4]": {"experiment": "physchem", "details": "water koh 0.0025 n", "description": "The solubility data enable address a second underlying problem encountered when the aqueous hydroxide solution is employed."}, "[5]": {"details": "cited from earlier work", "remark": "listed apart in the source"}}, "data": [{"smiles": "[Ca+2].[OH-].[OH-]", "note": "[Calcium hydroxide]", "values": [{"measurement": "normality of saturated solution", "setting": "[1]", "value": 9.6}]}, {"smiles": "[K+].[OH-]", "note": "[KOH, potassium hydroxide]", "values": [{"measurement": "normality of saturated solution", "setting": "[1]", "value": 18.0}]}, {"smiles": "c1ccc(CNc2ncnc3nc[nH]c23)cc1", "note": "[N^6 BA]", "values": [{"measurement": "solubility", "setting": "physchem [2]; aqueous koh 2.875 n", "value": "~455", "unit": "mg/mL"}, {"measurement": "solubility", "setting": "physchem [2]; koh in 95% ethanol, organic solvent or mixture", "value": "~540", "unit": "mg/mL"}, {"measurement": "efficacy of N^6 BA in presence of iron", "setting": "turf grasses; large amount of ferrous iron ions", "value": "a decrease in the efficacy of N^6 BA"}, {"measurement": "responses elicited in plants", "setting": "plant species; general", "value": "promotion of cell division, inhibition of respiration, increasing retention of water and drought resistance, enhancing root and top growth with change in root/top ratios as well as shortening plant internodes"}, {"measurement": "chlorophyll retention", "setting": "plant species; pre and post harvest commodities", "value": "increase chlorophyll retention"}, {"measurement": "dissolved concentration in mineral acids", "setting": "[3]; mineral acids", "value": "approximately 5%"}, {"measurement": "solubility in water", "setting": "[3]; water", "value": "about 0.00044 grams per 100 milliliters"}, {"measurement": "solubility", "setting": "physchem [4]", "value": 62, "unit": "µg/mL"}]}, {"smiles": "[Na+].[OH-]", "note": "[NaOH, sodium hydroxide]", "values": [{"measurement": "normality of saturated solution", "setting": "[1]", "value": 21.0}]}, {"smiles": "O.O.O.O.O.O.O.O=S(=O)([O-])[O-].[Fe+2]", "note": "[iron, Ferrous sulphate heptahydrate]", "values": [{"measurement": "practical concentration of iron in liquid spray concentrates", "setting": "[5]", "value": "5-6%"}, {"measurement": "root development", "setting": "turf grasses; iron to N^6 BA molecular ratio of about 200:1 or greater", "value": "substantially decreases root development"}]}, {"smiles": "[Mg+2].[OH-].[OH-]", "note": "[magnesium hydroxide]", "values": [{"measurement": "normality of saturated solution", "setting": "[1]", "value": 8.2}]}, {"smiles": "[OH-].[OH-].[Zn+2]", "note": "[zinc hydroxide]", "values": [{"measurement": "normality of saturated solution", "setting": "[1]", "value": 9.4}]}]}
